The source of these data is ChEMBL document CHEMBL1938253, “Design and synthesis of novel macrocyclic 2-amino-6-arylpyrimidine Hsp90 inhibitors” (Bioorg Med Chem Lett, 2012).

For orientation: microsomal CLint means the rate of metabolic loss divided by the concentration. Lower therefore signals greater metabolic stability. As a reminder, the Kd is the equilibrium constant for the complex coming apart. A low value points to a tighter complex. In general, solubility refers to the concentration that dissolves in the medium under given conditions. A lower solubility goes with a poorly soluble substance. Broadly, the Tmax is the time from dosing to the highest level. As usually defined, the half-life is how long it takes for the measured level to halve. Low values mean fast loss, high ones slow loss.

The structures appear in SMILES notation. ≈ marks a conversion by molar mass, not a printed value.

The nature of data set [1]: in vitro. To be noted: mouse, liver microsomes.
Data set [2] in a line: in vitro. To be noted: human, liver microsomes.
The target of data set [3] is Heat shock protein HSP 90-alpha (Homo sapiens, UniProt P07900).
Description: Binding affinity to N-terminus biotinylated human Hsp90 alpha by surface plasmon resonance assay
A short description of another data set: physchem. The following applies: fasted state simulated intestinal fluid.
Data set [4] in a line: Tmax in athymic nu/nu mouse at 200 mg/kg, po. In kind it is ADME, organism-based. Details: dose 200 mg/kg, route oral. To be noted: in vivo.
Data set [5] is described as follows: Half life in athymic nu/nu mouse at 10 mg/kg, iv. In kind it is ADME, organism-based. Further details: dose 10 mg/kg, route intravenous. To be noted: in vivo.

With `CSc1nc(N)nc(-c2ccc3c4c(cc(Cl)cc24)COC3)n1`, the figures for the intrinsic clearance (microsomal CLint) at 1 h, 5 µM in “in vitro [1]” and in “in vitro [2]” were 60 µL/min/mg and 43 µL/min/mg, respectively. This molecule returned a Kd in data set [3] of 3.4 nM. Moreover, the concentration in solution in “physchem” (solubility) was 29 µM (≈ 10 µg/mL). In addition, the Tmax in data set [4] turned out to be 30 min. For the same molecule, the half-life in data set [5] was 15 min.

In the case of `Cc1ccc2cc1-c1cc(nc(N)n1)Sc1cccc(c1)OCCCO2`, in data set [3], the dissociation constant Kd is 120 nM.

In turn, `Nc1nc2cc(n1)-c1cc(c(Cl)cc1Cl)OCCCCOc1cccc(c1)S2` gave a Kd in data set [3] of 11 nM. Further, in the data set “physchem”, the solubility was < 7 µM.

Take `Cc1cc(C)c2cc1C(=O)NCCCCOc1cccc(c1)Sc1cc-2nc(N)n1`: the solubility in “physchem” was 69 µM (≈ 29 µg/mL).

Take `Cc1cc(C)c2cc1C(=O)NCCCCCOc1cccc(c1)Sc1cc-2nc(N)n1`: the concentration in solution in the data set “physchem” (solubility) was 39 µM (≈ 16.9 µg/mL).

As for `COc1cc(C)c2cc1C(=O)NCCCOc1cccc(c1)Sc1cc-2nc(N)n1`, binding in data set [3] was characterised by a dissociation constant (Kd) of 5.8 nM. The molecule further registered a solubility in the data set “physchem” of 260 µM (≈ 110 µg/mL).

Regarding `CCOc1cc(C)c2cc1C(=O)NCCCOc1cccc(c1)Sc1cc-2nc(N)n1`, in data set [3], the Kd was 10 nM. The same molecule returned a solubility in “physchem” of 186 µM (≈ 81.2 µg/mL).

As to `Cc1cc(C)c2cc1C(=O)NCCCCNC(=O)CCSc1cc-2nc(N)n1`, the microsomal CLint at 1 h, 5 µM in “in vitro [1]” turned out to be 3.5 µL/min/mg; in “in vitro [2]”, 5.1 µL/min/mg. In the data set “physchem”, this molecule showed a solubility of 553 µM (≈ 221 µg/mL).

Turning to `Cc1cc(C)c2cc1C(=O)NCCCCCNC(=O)CCSc1cc-2nc(N)n1`, the figures for the microsomal CLint at 1 h, 5 µM in “in vitro [1]” and in “in vitro [2]” were 1.8 µL/min/mg and 1.7 µL/min/mg, respectively. In “physchem”, this molecule registered a solubility of 169 µM (≈ 69.9 µg/mL).

For `Cc1cc(C)c2cc1C(=O)NCCNC(=O)CCCSc1cc-2nc(N)n1`, the microsomal CLint at 1 h, 5 µM came to 3.6 µL/min/mg in “in vitro [1]” and 5.4 µL/min/mg in “in vitro [2]”. In data set [3], this molecule showed a Kd of 0.61 nM. For the same molecule, the solubility in the data set “physchem” was 106 µM (≈ 40.9 µg/mL).

Take `Cc1cc(C)c2cc1C(=O)NCCCC(=O)NCCSc1cc-2nc(N)n1`: the microsomal CLint at 1 h, 5 µM came to 15 µL/min/mg in the data set “in vitro [1]” and 1 µL/min/mg in “in vitro [2]”. The molecule further returned a Kd in data set [3] of 0.65 nM. This molecule gave a solubility in “physchem” of 117 µM (≈ 45.1 µg/mL).

Turning to `Cc1cc(C)c2cc1C(=O)NCCOC(=O)NCCSc1cc-2nc(N)n1`, the microsomal CLint at 1 h, 5 µM in “in vitro [1]” stood at 7.3 µL/min/mg; in “in vitro [2]” it was 3.5 µL/min/mg. Besides, in data set [3], the Kd stood at 0.7 nM. The molecule also displayed a solubility in the data set “physchem” of 911 µM (≈ 353 µg/mL).

In the case of `Cc1cc(C)c2cc1C(=O)NCCNC(=O)OCCSc1cc-2nc(N)n1`, the microsomal CLint at 1 h, 5 µM in the data set “in vitro [1]” came to 21 µL/min/mg; in the data set “in vitro [2]”, 9.3 µL/min/mg. For the same molecule, in data set [3], the Kd is 0.8 nM. In “physchem”, this molecule displayed a solubility of 111 µM (≈ 43 µg/mL).
